pKi: −log10 of the molar value. Counter-ions that a name gives are not always drawn.

The first test deals with human 5-HT6 receptor (Homo sapiens (Human), UniProt P50406). Description: 5-HT6 radioligand binding assay (SPA format, [N-methyl-3H]-LSD). Conditions: human 5-HT6 receptor membranes, 10 nM [N-methyl-3H]-LSD; Ki by Cheng-Prusoff; hydrochloride; read-out: human 5HT6 Ki. The protocol: The relative affinities of the various compounds for the 5-HT6 receptor were measured in a radioligand binding assay, using a scintillation proximity assay (SPA) format.
human 5-HT6 receptor, sequence (P50406 whole entry): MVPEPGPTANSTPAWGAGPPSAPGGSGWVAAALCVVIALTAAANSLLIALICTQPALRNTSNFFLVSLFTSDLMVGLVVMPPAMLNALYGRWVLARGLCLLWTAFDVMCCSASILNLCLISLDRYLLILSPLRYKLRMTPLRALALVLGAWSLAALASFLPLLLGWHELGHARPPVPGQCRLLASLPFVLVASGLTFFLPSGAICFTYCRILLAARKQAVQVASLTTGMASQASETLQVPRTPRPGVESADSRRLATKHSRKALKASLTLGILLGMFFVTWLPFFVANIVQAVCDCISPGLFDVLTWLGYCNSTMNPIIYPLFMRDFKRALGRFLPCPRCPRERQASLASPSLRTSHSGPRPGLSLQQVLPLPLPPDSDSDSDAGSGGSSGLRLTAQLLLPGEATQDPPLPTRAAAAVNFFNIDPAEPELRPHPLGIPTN
For binding analysis vs. the human receptor, samples were incubated in 50 mM Tris-HCl, pH 7.5, 5 mM MgCl2, 1 mM EDTA (4% DMSO final) with 10 nM [N-methyl-^3H]-LSD (Perkin Elmer), 2.5 ng of human 5-HT6 receptor membranes (Millipore) and 50 μg SPA beads (PVT-PEI-WGA, GE Healthcare) per well in a final volume of 0.2 mL. […] Binding reactions were performed in PicoPlate96 microtiter plates (Perkin Elmer) by consecutively adding 50 μL of each competing compound or buffer, SPA beads, radioligand and 5-HT6 receptor membranes. After an overnight incubation at room temperature on a Nutator mixer, plates were centrifuged for 15 min at 1,500 rpm, followed by incubation in the dark for 10 min. […] Total binding control contained compound dilution buffer only; nonspecific binding is determined in the presence of 100 μM 5-hydroxytryptamine. Specific binding was determined by subtracting nonspecific binding from total binding.
All experiments were performed in duplicate using ten concentrations of competing ligand, with clozapine included as a control in every run. IC50 values were determined from specific binding data using XLfit4.1 curve fitting software from IDBS Ltd. The inhibition constant (Ki) was calculated using the Cheng-Prusoff equation: (Ki=IC50/(1+(L/KD)), where L=concentration of radioligand in the assay, and KD=affinity of the radioligand for the receptor.
As to `CC1NCCc2oc3c(Cl)cc(S(=O)(=O)c4ccccc4)cc3c21` (racemic) [Example 81a, 6-chloro-1-methyl-8-(phenylsulfonyl)-1,2,3,4-tetrahydrobenzofuro[3,2-c]pyridine hydrochloride], the pKi was 9.46.

Turning to `CC1Cc2oc3c(Cl)cc(S(=O)(=O)c4ccccc4)cc3c2CN1` (racemic) [Example 81b, 6-chloro-3-methyl-8-(phenylsulfonyl)-1,2,3,4-tetrahydrobenzofuro[3,2-c]pyridine hydrochloride], the pKi was 7.72. As for `CC1Cc2oc3c(Cl)cc(S(=O)(=O)c4ccccc4)cc3c2CN1` (single isomer, unassigned; (+)) [Example 83b, (+) 6-chloro-3-methyl-8-(phenylsulfonyl)-1,2,3,4-tetrahydrobenzofuro[3,2-c]pyridine hydrochloride], the negative logarithm of the Ki (pKi) is 7.80.

Regarding `CC1NCCc2oc3c(Cl)cc(S(=O)(=O)c4ccccc4)cc3c21` (single isomer, unassigned; (-)) [Example 82b, (−) 6-chloro-1-methyl-8-(phenylsulfonyl)-1,2,3,4-tetrahydrobenzofuro[3,2-c]pyridine hydrochloride], the negative logarithm of the Ki (pKi) is 9.82.

Staying with this test, now noted: human 5-HT6 receptor membranes, 10 nM [N-methyl-3H]-LSD; Ki by Cheng-Prusoff; read-out: human 5HT6 Ki.
For `O=S(=O)(c1ccccc1)c1cc(Cl)c2oc3c(c2c1)CC(O)CC3` (racemic) [Example 97, 6-chloro-8-(phenylsulfonyl)-1,2,3,4-tetrahydrodibenzo[b,d]furan-2-ol], the negative-log Ki (pKi) is 8.77. With `O=S(=O)(c1cccc(C(F)(F)F)c1)c1cc(Cl)c2oc3c(c2c1)CNCC3` [Example 45, 6-Chloro-8-(3-trifluoromethylphenylsulfonyl)-1,2,3,4-tetrahydrobenzofuro[3,2-c]pyridine hydrochloride], the negative logarithm of the Ki (pKi) was 9.32. With `O=S(=O)(c1cccc(Cl)c1)c1cc(Cl)c2oc3c(c2c1)CNCC3` [Example 46, 6-Chloro-8-(3-chlorophenylsulfonyl)-1,2,3,4-tetrahydrobenzofuro[3,2-c]pyridine hydrochloride], the negative logarithm of the Ki (pKi) is 9.46. Consider `O=S(=O)(c1cc(Cl)c2oc3c(c2c1)CNCC3)n1ccc2ccccc21` [Example 51, 8-(1H-Indol-1-ylsulfonyl)-6-chloro-1,2,3,4-tetrahydrobenzofuro[3,2-c]pyridine hydrochloride], for which the negative-log Ki (pKi) is 9.70. The same measure, in the same setting: to `Cc1cc(S(=O)(=O)c2ccccc2)cc2c3c(oc12)CCNC3` [Example 53, 6-Methyl-8-(phenylsulfonyl)-1,2,3,4-tetrahydrobenzofuro[3,2-c]pyridine hydrochloride] belongs 9.66; to `O=S(=O)(c1cccc(F)c1)c1ccc2c3c(oc2c1)CC1CCC3N1` (centres unmarked) [Example 66, 3-(3-Fluorophenyl)sulfonyl-6,7,8,9,10-pentahydro-7,10-epiminocyclohepta[b]benzofuran hydrochloride], 6.27; to `COc1cc(S(=O)(=O)c2ccc3[nH]ccc3c2)cc2c3c(oc12)CCNC3` [Example 70, 8-(1H-indol-5-ylsulfonyl)-6-methoxy-1,2,3,4-tetrahydrobenzofuro[3,2-c]pyridine hydrochloride], 10.08.

Take `O=S(=O)(c1cccc(C2CCOC2)c1)c1cc(Cl)c2oc3c(c2c1)CNCC3` (centres unmarked) [Example 71, 6-chloro-8-(3-(tetrahydrofuran-3-yl)phenylsulfonyl)-1,2,3,4-tetrahydrobenzofuro[3,2-c]pyridine hydrochloride]: the pKi was 8.70. With `O=S(=O)(c1ccc(CO)cc1)c1cc(Cl)c2oc3c(c2c1)CNCC3` [Example 72, (4-((6-chloro-1,2,3,4-tetrahydrobenzofuro[3,2-c]pyridin-8-yl)sulfonyl)phenyl)methanol hydrochloride], the negative logarithm of the Ki (pKi) is 7.92. On to `N#Cc1cc(S(=O)(=O)c2cccc(F)c2)cc2c3c(oc12)CCNC3` [Example 73, 8-(3-fluorophenylsulfonyl)-1,2,3,4-tetrahydrobenzofuro[3,2-c]pyridine-6-carbonitrile hydrochloride], for which the negative logarithm of the Ki (pKi) is 8.37. Same read-out and setting: to `O=S(=O)(c1ccccc1)c1cc(CO)c2oc3c(c2c1)CNCC3` [Example 74, (8-(phenylsulfonyl)-1,2,3,4-tetrahydrobenzofuro[3,2-c]pyridin-6-yl)methanol hydrochloride] belongs 7.89; to `O=S(=O)(c1ccccc1)c1cc(-n2cccn2)c2oc3c(c2c1)CNCC3` [Example 76, 8-(phenylsulfonyl)-6-(1H-pyrazol-1-yl)-1,2,3,4-tetrahydrobenzofuro[3,2-c]pyridine hydrochloride], 8.03. The same measure, in the same setting: to `O=S(=O)(c1ccccc1)c1cc(-c2cn[nH]c2)c2oc3c(c2c1)CNCC3` [Example 77, 8-(phenylsulfonyl)-6-(1H-pyrazol-4-yl)-1,2,3,4-tetrahydrobenzofuro[3,2-c]pyridine hydrochloride] belongs 7.55. As for `CNC(=O)c1cc(S(=O)(=O)c2ccccc2)cc2c3c(oc12)CCNC3` [Example 78, N-methyl-8-(phenylsulfonyl)-1,2,3,4-tetrahydrobenzofuro[3,2-c]pyridine-6-carboxamide hydrochloride], the pKi is 6.22. The same measure, in the same setting: to `O=S(=O)(c1ccccc1)c1cc(Cl)c2oc3c(c2c1)CNC(CO)C3` (centres unmarked) [Example 86, (6-chloro-8-(phenylsulfonyl)-1,2,3,4-tetrahydrobenzofuro[3,2-c]pyridin-3-yl)methanol hydrochloride] belongs 6.28; to `O=S(=O)(c1ccccc1)c1cc(Cl)c2oc3c(c2c1)C(CF)NCC3` (centres unmarked) [Example 87, 6-chloro-1-fluoromethyl-8-phenylsulfonyl-1,2,3,4-tetrahydrobenzofuro[3,2-c]pyridine hydrochloride], 8.40; to `CN(C)C(=O)C1NCCc2oc3c(Cl)cc(S(=O)(=O)c4ccccc4)cc3c21` (centres unmarked) [Example 88, 6-chloro-N,N-dimethyl-8-(phenylsulfonyl)-1,2,3,4-tetrahydrobenzofuro[3,2-c]pyridine-1-carboxamide hydrochloride], 6.60. Same read-out and setting: to `O=S(=O)(c1ccccc1)c1cc(Cl)c2oc3c(c2c1)CCNCC3` [Example 90, 7-chloro-9-(phenylsulfonyl)-2,3,4,5-tetrahydro-1H-benzofuro[2,3-d]azepine hydrochloride] belongs 9.60. The same measure, in the same setting: to `O=S(=O)(c1cc(Cl)c2oc3c(c2c1)CNCC3)c1ccccc1Cl` [Example 100] belongs 9.11; to `O=S(=O)(c1cc(Cl)c2oc3c(c2c1)CNCC3)c1ccccc1OC(F)(F)F` [Example 102], 8.48. In the case of `O=S(=O)(c1cccc(-n2cccn2)c1)c1cc(Cl)c2oc3c(c2c1)CNCC3` [Example 103], the pKi is 8.66.

Turning to `O=S(=O)(c1ccc(-n2cccn2)cc1)c1cc(Cl)c2oc3c(c2c1)CNCC3` [Example 104], the pKi is 7.59. Still for that read-out and setting: the same measure for `O=S(=O)(c1ccc2c(c1)COCC2)c1cc(Cl)c2oc3c(c2c1)CNCC3` [Example 105]: 7.89. With `O=S(=O)(c1ccc2c(c1)CCOC2)c1cc(Cl)c2oc3c(c2c1)CNCC3` [Example 106], the negative-log Ki (pKi) is 8.60. Same read-out and setting: the same measure for `CC(C)(O)c1cccc(S(=O)(=O)c2cc(Cl)c3oc4c(c3c2)CNCC4)c1` [Example 107]: 9.10; for `CC(C)(O)c1ccc(S(=O)(=O)c2cc(Cl)c3oc4c(c3c2)CNCC4)cc1` [Example 108]: 8.89; for `COCc1ccc(S(=O)(=O)c2cc(Cl)c3oc4c(c3c2)CNCC4)cc1` [Example 109]: 7.85. For the compound `O=S(=O)(c1cccc(CO)c1)c1cc(Cl)c2oc3c(c2c1)CNCC3` [Example 110], the pKi was 8.36. On to `O=S(=O)(c1ccc(OC(F)F)cc1)c1cc(Cl)c2oc3c(c2c1)CNCC3` [Example 113], for which the pKi is 8.66. For `O=S(=O)(c1ccccc1)c1cc(Cl)c2oc3c(c2c1)CN(CCC(F)(F)F)CC3` [Example 114], the pKi was 7.72. `O=S(=O)(c1ccccc1)c1cc(Cl)c2oc3c(c2c1)CN(c1cccnc1)CC3` [Example 115]: the negative-log Ki (pKi) was 6.91.

As for `CN1CCc2oc3c(Cl)cc(S(=O)(=O)c4ccccc4)cc3c2C1` [Example 116], the negative logarithm of the Ki (pKi) was 9.00. Turning to `CCN1CCc2oc3c(Cl)cc(S(=O)(=O)c4ccccc4)cc3c2C1` [Example 117], the pKi was 8.92. The same measure, in the same setting: the same measure for `O=S(=O)(c1cncc(Cl)c1)c1cc(Cl)c2oc3c(c2c1)CNCC3` [Example 119]: 7.70; for `O=S(=O)(c1cccnc1)c1cc(Cl)c2oc3c(c2c1)CNCC3` [Example 120]: 7.59; for `O=S(=O)(c1cncc(C(F)(F)F)c1)c1cc(Cl)c2oc3c(c2c1)CNCC3` [Example 121]: 7.54. In the case of `O=S(=O)(c1cc(Cl)c2oc3c(c2c1)CNCC3)c1ccccc1CO` [Example 122], the negative-log Ki (pKi) was 8.27. Still for that read-out and setting: to `COc1cccc(S(=O)(=O)c2cc(Cl)c3oc4c(c3c2)CNCC4)c1` [Example 123] belongs 8.92; to `Cn1ncc2cc(S(=O)(=O)c3cc(Cl)c4oc5c(c4c3)CNCC5)ccc21` [Example 124], 7.43. The same measure, in the same setting: to `O=S(=O)(c1cc(F)cc(Cl)c1)c1cc(Cl)c2oc3c(c2c1)CNCC3` [Example 125] belongs 8.64.

These data come from patent publication US9067949B2, “Benzofuro[3,2-c] pyridines and related analogs as serotonin sub-type 6 (5-HT6) modulators for the treatment of obesity, metabolic syndrome, cognition and schizophrenia” (Albany Molecular Research, Inc., priority 2011, dated 2015).
